# Results reported in ChEMBL document CHEMBL3779814, “6-O-Nucleotidyltransferase: an aminoglycoside-modifying enzyme specific for streptomycin/streptidine” (2016).
# Calls of active or inactive are those of the source. The calls are words filed in the database; no cut-off is given here.
# Assays:
# Bacillus subtilis [1] = assay: Activity of Bacillus subtilis N-terminal His-tagged ANT(6) expressed in Escherichia coli BL21(DE3) cells assessed as adenylated product by Michaelis-Menten kinetics
# Escherichia coli [2] = assay: Antibacterial activity against Escherichia coli BL21(DE3) expressing Bacillus subtilis N-terminal His-tagged ANT(6) in presence of streptidine; type: functional
# Escherichia coli [3] = assay: Antibacterial activity against Escherichia coli BL21(DE3); type: functional
# Serratia marcescens = assay: Activity of Serratia marcescens ANT(3'')-1i/AAC(6')-2d expressed in Escherichia coli BL21(DE3) cells assessed as ratio of Kcat to Km of ANT(3'')-1i domain catalysed adenylated product by steady state kinetic analysis
# Escherichia coli [4] = assay: Antibacterial activity against Escherichia coli BL21(DE3) expressing Bacillus subtilis N-terminal His-tagged ANT(6) incubated for 12 hrs in presence of 2-deoxystreptidine; type: functional
# Escherichia coli [5] = assay: Antibacterial activity against Escherichia coli incubated for 12 hrs in presence of 2-deoxystreptidine; type: functional
# Escherichia coli [6] = assay: Antibacterial activity against Escherichia coli BL21(DE3) harboring pET plasmid incubated for 12 hrs in presence of 2-deoxystreptidine; type: functional
# Escherichia coli [7] = assay: Antibacterial activity against Escherichia coli BL21(DE3) harboring pET plasmid in streptidine; type: functional
# Bacillus subtilis [8] = assay: Activity of Bacillus subtilis N-terminal His-tagged ANT(6) expressed in Escherichia coli BL21(DE3) cells assessed as ratio of Kcat to Km of adenylated product by Michaelis-Menten kinetics
# Escherichia coli [9] = assay: Antibacterial activity against Escherichia coli; type: functional
# Escherichia coli [10] = assay: Antibacterial activity against Escherichia coli in presence of streptidine; type: functional
# Escherichia coli [11] = assay: Antibacterial activity against Escherichia coli BL21(DE3) expressing ANT(6); type: functional
# Escherichia coli [12] = assay: Antibacterial activity against Escherichia coli incubated for 12 hrs; type: functional
# Escherichia coli [13] = assay: Antibacterial activity against Escherichia coli BL21(DE3) expressing Bacillus subtilis N-terminal His-tagged ANT(6) incubated for 12 hrs; type: functional
# Escherichia coli [14] = assay: Antibacterial activity against Escherichia coli BL21(DE3) harboring pET plasmid incubated for 12 hrs; type: functional
smiles,measurement,setting,value
NC[C@H]1O[C@H](O[C@H]2[C@H](O[C@@H]3O[C@H](CO)[C@@H](O)[C@H]3O)[C@@H](O)[C@H](N)C[C@@H]2N)[C@H](N)[C@@H](O)[C@@H]1O,Activity,Bacillus subtilis [1],inactive
O=c1ccn([C@@H]2O[C@H](COP(=O)(O)OP(=O)(O)OP(=O)(O)O)[C@@H](O)[C@H]2O)c(=O)[nH]1,Activity,Bacillus subtilis [1],Active
Nc1nc2c(ncn2[C@@H]2O[C@H](COP(=O)(O)OP(=O)(O)OP(=O)(O)O)[C@@H](O)[C@H]2O)c(=O)[nH]1,Activity,Bacillus subtilis [1],Active
NC[C@H]1O[C@H](O[C@H]2[C@H](O)[C@@H](O[C@H]3O[C@H](CO)[C@@H](O)[C@H](N)[C@H]3O)[C@H](N)C[C@@H]2N)[C@H](O)[C@@H](O)[C@@H]1O,Activity,Bacillus subtilis [1],inactive
CN[C@@H]1[C@H](O[C@H]2[C@H](O[C@H]3[C@H](O)[C@@H](O)[C@H](N=C(N)N)[C@@H](O)[C@@H]3N=C(N)N)O[C@@H](C)[C@]2(O)C=O)O[C@@H](CO)[C@H](O)[C@H]1O [STREPTOMYCIN],MIC90,Escherichia coli [2],10 µg/mL
same,MIC90,Escherichia coli [3],5 µg/mL
same,kcat/Km,Serratia marcescens,3.2 ×10⁵ /s/M
same,MIC90,Escherichia coli [4],100 µg/mL
same,MIC90,Escherichia coli [5],2 µg/mL
same,MIC90,Escherichia coli [6],100 µg/mL
same,MIC90,Escherichia coli [7],5 µg/mL
same,kcat/Km,Bacillus subtilis [8],9.2 ×10² /s/M
same,MIC90,Escherichia coli [9],5 µg/mL
same,MIC90,Escherichia coli [10],5 µg/mL
same,Km,Bacillus subtilis [1],38 µM
same,kcat,Bacillus subtilis [1],0.03 s⁻¹
same,MIC90,Escherichia coli [11],> 200 µg/mL
Nc1ncnc2c1ncn2[C@@H]1O[C@H](COP(=O)(O)OP(=O)(O)O)[C@@H](O)[C@H]1O,Activity,Bacillus subtilis [1],inactive
Nc1ncnc2c1ncn2[C@@H]1O[C@H](COP(=O)(O)OP(=O)(O)OP(=O)(O)O)[C@@H](O)[C@H]1O,kcat/Km,Bacillus subtilis [8],2.1 ×10² /s/M
same,Activity,Bacillus subtilis [1],Active
same,Km,Bacillus subtilis [1],84 µM
same,kcat,Bacillus subtilis [1],0.018 s⁻¹
N[C@@H]1C[C@H](N)[C@@H](O)[C@H](O)[C@H]1O,MIC90,Escherichia coli [12],> 100 µg/mL
same,MIC90,Escherichia coli [13],> 100 µg/mL
N=C(N)N[C@@H]1[C@@H](O)[C@H](NC(=N)N)[C@@H](O)[C@H](O)[C@H]1O,MIC90,Escherichia coli [12],> 100 µg/mL
same,kcat/Km,Bacillus subtilis [8],1.2 M⁻¹ s⁻¹
same,MIC90,Escherichia coli [13],> 200 µg/mL
same,Km,Bacillus subtilis [1],600 µM
same,kcat,Bacillus subtilis [1],0.0006 s⁻¹
same,MIC90,Escherichia coli [14],> 100 µg/mL
Nc1ncnc2c1ncn2[C@@H]1O[C@H](COP(=O)(O)CP(=O)(O)OP(=O)(O)O)[C@@H](O)[C@H]1O,Activity,Bacillus subtilis [1],inactive
Nc1ccn([C@@H]2O[C@H](COP(=O)(O)OP(=O)(O)OP(=O)(O)O)[C@@H](O)[C@H]2O)c(=O)n1,Activity,Bacillus subtilis [1],Active
Nc1ncnc2c1ncn2[C@@H]1O[C@H](COP(=O)(O)O)[C@@H](O)[C@H]1O,Activity,Bacillus subtilis [1],inactive
